In this assay the target is hFXR (Homo sapiens (Human), UniProt Q96RI1). The assay is described as follows: In Vitro FXR Assay (TK), luciferase reporter in transfected CV-1 cells. To be noted: TK-ECRE-luc reporter, hFXR/hRXR, 18 hrs, maximum efficacy <25% of Fexaramine control classified as '+'. Format: cell-based. The procedure:
CV-1 cells were seeded at a density of 2,000,000 cells in a T175 flask with DMEM+10% charcoal double-stripped FBS and incubated at 37° C. in 5% CO2 for 18 h (O/N).
After 18 h of incubation, the medium in the T175 flask was changed with fresh DMEM+10% charcoal super-stripped serum. In a polypropylene tube, 2500 μL OptiMEM (Life Technologies, Cat #31985-062) was combined with expression plasmids for hFXR, hRXR, TK-ECRE-luc and pCMX-YFP. The tube was then briefly vortexed and incubated at room temperature for 5 minutes. Transfection reagent (X-tremeGENE HP from Roche, Cat #06 366 236 001) was added to the OptiMEM/plasmid mixture vortexed and incubated at room temperature for 20 minutes. Following incubation, the transfection reagent/DNA mixture complex was added to cells in the T175 flask and the cells were incubated at 37° C. in 5% CO2 for 18 h (O/N).
Compounds were serially diluted in DMSO and added to transfected CV-1 cells. The cells were then incubated for 18 hrs. The next day cells were lysed and examined for luminescence.
(In general: In a reporter assay the amount or activity of a reporter protein is the signal.)

Experimental findings from US10377717B2, “Farnesoid X receptor agonists and uses thereof” (Metacrine, Inc., priority 2015, dated 2019) are described below.

For orientation: pEC50 means the negative decadic logarithm of the EC50, by convention in mol/L. High values mean a low EC50, low ones a high EC50.

pEC50: −log10 of the molar value. Some results are limits rather than exact numbers.

hFXR, sequence (Q96RI1 whole entry): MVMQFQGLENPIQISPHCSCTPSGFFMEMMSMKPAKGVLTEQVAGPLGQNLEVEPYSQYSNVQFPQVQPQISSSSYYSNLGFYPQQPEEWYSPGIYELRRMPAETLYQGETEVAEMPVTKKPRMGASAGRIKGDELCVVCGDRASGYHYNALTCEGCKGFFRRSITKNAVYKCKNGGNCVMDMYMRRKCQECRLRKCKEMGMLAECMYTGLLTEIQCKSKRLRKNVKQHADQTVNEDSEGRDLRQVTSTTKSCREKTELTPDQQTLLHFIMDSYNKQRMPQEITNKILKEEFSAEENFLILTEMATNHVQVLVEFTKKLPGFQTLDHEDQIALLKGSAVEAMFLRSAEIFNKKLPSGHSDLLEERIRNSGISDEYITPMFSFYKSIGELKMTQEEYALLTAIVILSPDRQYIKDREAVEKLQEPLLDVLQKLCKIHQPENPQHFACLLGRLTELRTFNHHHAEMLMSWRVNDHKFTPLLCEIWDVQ
hFXR, sequence (P19793 whole entry partner): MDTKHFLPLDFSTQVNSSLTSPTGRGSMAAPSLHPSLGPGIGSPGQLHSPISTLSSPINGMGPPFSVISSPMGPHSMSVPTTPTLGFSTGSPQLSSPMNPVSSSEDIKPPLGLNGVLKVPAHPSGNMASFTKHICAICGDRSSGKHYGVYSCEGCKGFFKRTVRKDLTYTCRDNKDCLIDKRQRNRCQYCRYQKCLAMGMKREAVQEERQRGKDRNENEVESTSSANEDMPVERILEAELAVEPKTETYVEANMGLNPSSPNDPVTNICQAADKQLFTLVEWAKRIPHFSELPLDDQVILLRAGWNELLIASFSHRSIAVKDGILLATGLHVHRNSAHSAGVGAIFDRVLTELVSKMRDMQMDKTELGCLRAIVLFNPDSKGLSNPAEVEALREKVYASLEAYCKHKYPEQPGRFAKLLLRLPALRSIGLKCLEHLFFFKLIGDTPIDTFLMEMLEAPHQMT

For `COC(=O)c1ccc2c(N(Cc3ccc(-c4ccc(OCCO)cc4)cc3)C(=O)CC(C)(C)C)nccc2c1` [Compound 60, Methyl 1-(N′-((4′-(2-hydroxyethoxy)-[1,1′-biphenyl]-4-yl)methyl)-3,3-dimethylbutanamido)isoquinoline-6-carboxylate], the pEC50 is 5.00 to 6.00.
In the case of `COC(=O)c1ccc2c(N(Cc3ccc(-c4ccc(CCO)cc4)cc3)C(=O)CC(C)(C)C)nccc2c1` [Compound 61, Methyl 1-(N-((4′-(2-hydroxyethyl)-[1,1′-biphenyl]-4-yl)methyl)-3,3-dimethylbutanamido)isoquinoline-6-carboxylate] it was at least 6.00; in that of `COCCc1ccc(-c2ccc(CN(C(=O)CC(C)(C)C)c3nccc4cc(C(=O)OC)ccc34)cc2)cc1` [Compound 62, Methyl 1-(N-((4′-(2-methoxyethyl)-[1,1′-biphenyl]-4-yl)methyl)-3,3-dimethylbutanamido)isoquinoline-6-carboxylate], at least 6.00; in that of `COC(=O)c1ccc2c(N(Cc3ccc(-c4ccc5c(c4)CCN5)cc3)C(=O)CC(C)(C)C)nccc2c1` [Compound 63, Methyl 1-(N-(4-(indolin-5-yl)benzyl)-3,3-dimethylbutanamido)isoquinoline-6-carboxylate], at least 6.00.
The figure for `COC(=O)c1ccc2c(N(Cc3ccc(-c4ccc5c(c4)CCN5C)cc3)C(=O)CC(C)(C)C)nccc2c1` [Compound 64, Methyl 1-(3,3-dimethyl-N-(4-(1-methylindolin-5-yl)benzyl)butanamido)isoquinoline-6-carboxylate] is at least 6.00.
As to `COC(=O)c1ccc2c(N(Cc3ccc(-c4ccc(OC)c(Cl)c4)cc3)C(=O)[C@H]3CC[C@H](O)CC3)nccc2c1` [Compound 66, Methyl 1-(trans-N-((3′-chloro-4′-methoxy-[1,1′-biphenyl]-4-yl)methyl)-4-hydroxycyclohexanecarboxamido) isoquinoline-6-carboxylate], the pEC50 is at least 6.00.
Compound `COC(=O)c1ccc2c(N(Cc3ccc(-c4ccc(OC)c(C#N)c4)cc3)C(=O)[C@H]3CC[C@H](O)CC3)nccc2c1` [Compound 67, Methyl 1-(trans-N-((3′-cyano-4′-methoxy-[1,1′-biphenyl]-4-yl)methyl)-4-hydroxycyclohexanecarboxamido) isoquinoline-6-carboxylate] showed a pEC50 of 5.00 to 6.00.
Compound `COc1ccc(-c2ccc(CN(C(=O)CC(C)(C)C)c3nccc4cc(C(=O)OC(C)C)ccc34)cc2)cc1C#N` [Compound 68, Isopropyl 1-(N-((3′-cyano-4′-methoxy-[1,1′-biphenyl]-4-yl)methyl)-3,3-dimethylbutanamido) isoquinoline-6-carboxylate] gave a pEC50 of at least 6.00.
As to `COc1ccc(-c2ccc(CN(C(=O)CC(C)(C)C)c3nccc4cc(C(=O)OC(C)C)ccc34)cc2)cc1C` [Compound 69, Isopropyl 1-(N-((4′-methoxy-3′-methyl-[1,1′-biphenyl]-4-yl)methyl)-3,3-dimethylbutanamido)isoquinoline-6-carboxylate], the pEC50 is at least 6.00.
As to `COC(=O)c1ccc2c(N(Cc3ccc(-c4ccc(OC)c(C)c4)cc3)C(=O)CC(C)C)nccc2c1` [Compound 70, Methyl 1-(N-((4′-methoxy-3′-methyl-[1,1′-biphenyl]-4-yl)methyl)-3-methylbutanamido)isoquinoline-6-carboxylate], the pEC50 is at least 6.00.
The compound `COC(=O)c1ccc2c(N(Cc3ccc(-c4ccc(OC)c(C)c4)cc3)C(=O)C3CCCC3)nccc2c1` [Compound 71, Methyl 1-(N-((4′-methoxy-3′-methyl-[1,1′-biphenyl]-4-yl)methyl)cyclopentanecarboxamido) isoquinoline-6-carboxylate] gave a negative-log EC50 (pEC50) of at least 6.00.
The compound `COC(=O)c1ccc2c(N(Cc3ccc(-c4ccc(OC)c(C)c4)cc3)C(=O)CC3CCCC3)nccc2c1` [Compound 72, Methyl 1-(2-cyclopentyl-N-((4′-methoxy-3′-methyl-[1,1′-biphenyl]-4-yl)methyl)acetamido)isoquinoline-6-carboxylate] showed a pEC50 of at least 6.00.
`COC(=O)c1ccc2c(N(Cc3ccc(-c4ccc(OC)c(C)c4)cc3)C(=O)c3ccccc3)nccc2c1` [Compound 73, Methyl 1-(N-((4′-methoxy-3′-methyl-[1,1′-biphenyl]-4-yl)methyl)benzamido)isoquinoline-6-carboxylate] had a pEC50 of at least 6.00.
`COC(=O)c1ccc2c(N(Cc3ccc(-c4ccc(OC)c(C)c4)cc3)C(=O)CC3CCCCC3)nccc2c1` [Compound 74, Methyl 1-(2-cyclohexyl-N-((4′-methoxy-3′-methyl-[1,1′-biphenyl]-4-yl)methyl)acetamido)isoquinoline-6-carboxylate] gave a pEC50 of 5.00 to 6.00.
In the case of `COC(=O)c1ccc2c(N(Cc3ccc(-c4ccc(OC)c(C)c4)cc3)C(=O)Cc3ccccc3)nccc2c1` [Compound 75, Methyl 1-(N-((4′-methoxy-3′-methyl-[1,1′-biphenyl]-4-yl)methyl)-2-phenylacetamido)isoquinoline-6-carboxylate] it was at most 5.00; in that of `COC(=O)c1ccc2c(N(Cc3ccc(-c4ccc(OC)c(C)c4)cc3)C(=O)CCC(C)(C)C)nccc2c1` [Compound 76, Methyl 1-(N-((4′-methoxy-3′-methyl-[1,1′-biphenyl]-4-yl)methyl)-4,4-dimethylpentanamido)isoquinoline-6-carboxylate], at least 6.00.
Compound `COC(=O)c1ccc2c(N(Cc3ccc(-c4ccc(OC)c(C)c4)cc3)C(=O)CCc3ccccc3)nccc2c1` [Compound 77, Methyl 1-(N-((4′-methoxy-3′-methyl-[1,1′-biphenyl]-4-yl)methyl)-3-phenylpropanamido)isoquinoline-6-carboxylate] had a pEC50 of 5.00 to 6.00.
For `COC(=O)c1ccc2c(N(Cc3ccc(-c4ccc(OC)c(C)c4)cc3)C(=O)CCCOCc3ccccc3)nccc2c1` [Compound 78, Methyl 1-(4-(benzyloxy)-N-((4′-methoxy-3′-methyl-[1,1′-biphenyl]-4-yl)methyl)butanamido)isoquinoline-6-carboxylate], the pEC50 is at most 5.00.
`COC(=O)c1ccc2c(N(Cc3ccc(-c4ccc(OC)c(C)c4)cc3)C(=O)CC3CCC3)nccc2c1` [Compound 79, Methyl 1-(2-cyclobutyl-N-((4′-methoxy-3′-methyl-[1,1′-biphenyl]-4-yl)methyl)acetamido)isoquinoline-6-carboxylate] showed a pEC50 of at least 6.00.
`COC(=O)c1ccc2c(N(Cc3ccc(-c4ccc(OC)c(C)c4)cc3)C(=O)CC3CC3)nccc2c1` [Compound 80, Methyl 1-(2-cyclopropyl-N-((4′-methoxy-3′-methyl-[1,1′-biphenyl]-4-yl)methyl)acetamido)isoquinoline-6-carboxylate] showed a pEC50 of at least 6.00.
In the case of `CCCCC(=O)N(Cc1ccc(-c2ccc(OC)c(C)c2)cc1)c1nccc2cc(C(=O)OC)ccc12` [Compound 81, Methyl 1-(N-((4′-methoxy-3′-methyl-[1,1′-biphenyl]-4-yl)methyl)pentanamido) isoquinoline-6-carboxylate] it was at least 6.00; in that of `CCCC(=O)N(Cc1ccc(-c2ccc(OC)c(C)c2)cc1)c1nccc2cc(C(=O)OC)ccc12` [Compound 82, Methyl 1-(N-((4′-methoxy-3′-methyl-[1,1′-biphenyl]-4-yl)methyl)butyramido)isoquinoline-6-carboxylate], at least 6.00; in that of `COC(=O)c1ccc2c(N(Cc3ccc(-c4ccc(OC)c(C)c4)cc3)C(=O)CC3COC3)nccc2c1` [Compound 83, Methyl 1-(N-((4′-methoxy-3′-methyl-[1,1′-biphenyl]-4-yl)methyl)-2-(oxetan-3-yl)acetamido)isoquinoline-6-carboxylate], 5.00 to 6.00.
The compound `COC(=O)c1ccc2c(N(Cc3ccc(-c4ccc(OC)c(C)c4)cc3)C(=O)CCO)nccc2c1` [Compound 84, Methyl 1-(3-hydroxy-N-((4′-methoxy-3′-methyl-[1,1′-biphenyl]-4-yl)methyl)propanamido) isoquinoline-6-carboxylate] showed a pEC50 of at most 5.00.
Compound `COC(=O)c1ccc2c(N(Cc3ccc(-c4ccc(OC)c(C)c4)cc3)C(=O)CCCO)nccc2c1` [Compound 85, Methyl 1-(4-hydroxy-N-((4′-methoxy-3′-methyl-[1,1′-biphenyl]-4-yl)methyl)butanamido) isoquinoline-6-carboxylate] showed a pEC50 of at most 5.00.
The figure for `COC(=O)c1ccc2c(N(Cc3ccc(-c4ccc(OC)c(C)c4)cc3)C(=O)CCCCO)nccc2c1` [Compound 86, Methyl 1-(5-hydroxy-N-((4′-methoxy-3′-methyl-[1,1-biphenyl]-4-yl)methyl)pentanamido) isoquinoline-6-carboxylate] is at most 5.00; for `COc1ccc([C@H]2CC[C@H](CN(C(=O)CC(C)(C)C)c3nccc4cc(C(=O)OC(C)C)ccc34)CC2)cc1C` [Compound 87, Isopropyl 1-(N-((trans-4-(4-methoxy-3-methylphenyl)cyclohexyl)methyl)-3,3-dimethylbutanamido)isoquinoline-6-carboxylate] it is at least 6.00; for `CCC(C)(C)CC(=O)N(C[C@H]1CC[C@H](c2ccc(OC)c(C)c2)CC1)c1nccc2cc(C(=O)OC(C)C)ccc12` [Compound 88, Isopropyl 1-(N-((trans-4-(4-methoxy-3-methylphenyl)cyclohexyl)methyl)-3,3-dimethylpentanamido)isoquinoline-6-carboxylate] it is at least 6.00.
